Molecules are shown by their SMILES.

For one test, the system named is ulcerative colitis. The test is described as follows: Case report: patient with ulcerative colitis (pancolitis) treated with secnidazole, rifampicin and doxycycline. In kind it is in vivo, human. The conditions noted are these: patient history before the antibiotic combination. On the procedure:
A patient with a 12 year history of ulcerative colitis presented with 4-15 diarrhoeal stools every day and 2-3 at night.
They were commenced on secnidazole (400 mg three times daily) combined with rifampicin (increasing from 150 mg twice daily to 300 mg twice daily after four weeks), together with doxycycline (50 mg twice daily).
They then continued on the same regimen a further six months when a colonoscopy was repeated.

In test [1] the test system is inflammatory bowel disease (IBD). The test is described as follows: Inventor's clinical experience with higher-dose rifaximin in colitis / IBD. In kind it is in vivo, human. An excerpt:
Current doses are almost always an under-dosing with rifaximin; and there is no external dose reference or independent dose ranging study in colitis to be guided by.

Turning to `C[C@]12C=CC(=O)C=C1CC[C@@H]1[C@@H]2C(=O)C[C@@]2(C)[C@H]1CC[C@]2(O)C(=O)CO` [prednisone], the “response to previous anti-inflammatory medications” value (shortened to “response”) with ulcerative colitis is on record as “not achieving more than a transient response”.

As for `Cn1cnc([N+](=O)[O-])c1Sc1ncnc2nc[nH]c12` [azathioprine], the “response” value in the test with ulcerative colitis is on record as “not achieving more than a transient response”.

On to `Nc1ccc(O)c(C(=O)O)c1` [mesalazine], for which the “response” value in the test with ulcerative colitis is on record as “not achieving more than a transient response”. Take `CO[C@H]1/C=C/O[C@@]2(C)Oc3c(C)c(O)c4c(O)c(c5c(nc6cc(C)ccn65)c4c3C2=O)NC(=O)/C(C)=C\C=C\[C@H](C)[C@H](O)[C@@H](C)[C@@H](O)[C@@H](C)[C@H](OC(C)=O)[C@@H]1C` [rifaximin]: in test [1] (higher dose spread over 3 doses/day (3.3 g per day) versus current recommended doses (550 mg twice daily)), the “inhibiting inflammation by inhibiting the infection(s)” value is “works far better”. In addition, the “remission with rifaximin alone” value in test [1] (only using the higher and more frequent dosing) was “can be used to achieve remission”.

Source of the values: patent publication US20210000806A1, “COMPOSITIONS AND METHODS FOR TREATING INFLAMMATORY BOWEL DISEASE AND FUSOBACTERIA-CAUSED OR RELATED DISEASES AND CONDITIONS” (priority 2018, published 2021).
